Experimental data as given in patent US10150760B2, “Compounds for use in preparing heterocyclic triazole agonists of the APJ receptor” (AMGEN INC., priority 2016, dated 2018).

Legend:
[1] = test system: isolated perfused rat hearts; assay: Ex vivo isolated perfused rat heart assay (Langendorff apparatus), load independent inotropic and lusitropic effects; design: species or system Sprague Dawley rat; settings: ex vivo isolated perfused rat heart, percent change over vehicle; for Isolated Heart Assay dP/dtmax (%): contractility; for Isolated Heart Assay dP/dtmin (%): relaxation
Excerpt: Evidence for Load Independent Inotropic Effects with APJ Agonists Using Ex Vivo Assay (Isolated Perfused Rat Hearts)
Naive Sprague Dawley® SD rats (Harlan laboratories (Livermore, Calif. USA)) were anaesthetized and hearts were excised followed by cannulation in the Langendorff apparatus (Harvard apparatus, Holliston, Mass. USA) via aorta. The heart was perfused retrograde with modified oxygenated Krebs-Henseleit buffer (Skrzypiec-Spring M et al., (2007) J. Pharmacol Toxicol Methods 55: 113-126). The pressure of the solution causes the aortic valve to shut and the perfusate is then forced into the ostium and the coronary vessels. This allows the heart to beat for several h. A balloon was inserted into the left ventricle (LV) to measure dP/dtmax (derivative of left ventricular pressure) as an index of cardiac contractility. The APJ agonist was perfused constantly in a dose dependent manner into the heart to examine cardiac contractility.
Example 49.0 was infused at different concentrations and load independent contractility was measured by index of LV dP/dtmax and the results are expressed as a percent change over vehicle. […] Example 49.0 was infused at different concentrations and load independent lusitropic effect (relaxation) was measured by index of LV dP/dtmin where results are expressed as percent change over vehicle. […] Example 60.0 was infused at different concentrations and load independent contractility was measured by index of LV dP/dtmax and the results are expressed as a percent change over vehicle. […] Example 60.0 was infused at different concentrations and load independent lusitropic effect (relaxation) was measured by index of LV dP/dtmin where results are expressed as percent change over vehicle.

human APJ receptor = human APJ receptor (Homo sapiens (Human), UniProt P35414); assay: [35S]GTPγS binding assay on membranes from CHO cells stably expressing human APJ receptor; assay type: biochemical; settings: read-out: Activity hAPJ SPA EC50 IP
In short: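 Membranes from CHO cells stably expressing human APJ incubated with ligand, 0.2 nM [35S]GTPγS and WGA SPA beads in HEPES pH 7.5 with 5 mM MgCl2, 200 mM NaCl, 3 μM GDP, 90 min at RT. Nonspecific binding defined with 100 μM GTPγS; EC50 by non-linear regression.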

human APJ receptor, sequence (P35414 whole entry): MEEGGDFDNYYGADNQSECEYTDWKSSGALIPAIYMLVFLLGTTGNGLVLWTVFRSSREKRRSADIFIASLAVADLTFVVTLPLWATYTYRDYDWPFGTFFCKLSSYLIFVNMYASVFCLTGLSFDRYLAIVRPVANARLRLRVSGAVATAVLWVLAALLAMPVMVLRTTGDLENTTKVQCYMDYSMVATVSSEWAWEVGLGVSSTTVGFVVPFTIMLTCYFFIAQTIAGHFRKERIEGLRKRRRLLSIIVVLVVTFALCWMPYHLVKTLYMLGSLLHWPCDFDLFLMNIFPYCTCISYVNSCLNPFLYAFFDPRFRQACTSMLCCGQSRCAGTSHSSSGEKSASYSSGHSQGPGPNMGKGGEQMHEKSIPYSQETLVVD

Compound	Isolated Heart Assay dP/dtmax (%) [1]	Isolated Heart Assay dP/dtmin (%) [1]	EC50 (human APJ receptor) [nM]
COc1cccc(OC)c1-n1c(NS(=O)(=O)[C@@H](C)[C@H](C)c2ncc(Cl)cn2)nnc1[C@H]1CCCO1 (single isomer, unassigned) [Example 47.0, (2S,3R)-3-(5-chloro-2-pyrimidinyl)-N-(4-(2,6-dimethoxyphenyl)-5-((2S)-tetrahydro-2-furanyl)-4H-1,2,4-triazol-3-yl)-2-butanesulfonamide or (2S,3R)-3-(5-chloro-2-pyrimidinyl)-N-(4-(2,6-dimethoxyphenyl)-5-((2R)-tetrahydro-2-furanyl)-4H-1,2,4-triazol-3-yl)-2-butanesulfonamide]	6.5%	1.0%	0.72
COc1cccc(OC)c1-n1c(NS(=O)(=O)[C@@H](C)[C@H](C)c2ncc(C)cn2)nnc1[C@H]1CCCO1 (single isomer, unassigned) [Example 50.0, (2S,3R)-N-(4-(2,6-dimethoxyphenyl)-5-((S)-tetrahydrofuran-2-yl)-4H-1,2,4-triazol-3-yl)-3-(5-methylpyrimidin-2-yl)butane-2-sulfonamide or (2S,3R)-N-(4-(2,6-dimethoxyphenyl)-5-((R)-tetrahydrofuran-2-yl)-4H-1,2,4-triazol-3-yl)-3-(5-methylpyrimidin-2-yl)butane-2-sulfonamide]	2.0%	No effect	28
COc1cccc(OC)c1-n1c(NS(=O)(=O)[C@@H](C)[C@H](OC)c2ncc(Cl)cn2)nnc1[C@H]1CCCO1 (single isomer, unassigned) [Example 51.0, (1R,2S)-1-(5-chloropyrimidin-2-yl)-N-(4-(2,6-dimethoxyphenyl)-5-((R)-tetrahydrofuran-2-yl)-4H-1,2,4-triazol-3-yl)-1-methoxypropane-2-sulfonamide or (1R,2S)-1-(5-chloropyrimidin-2-yl)-N-(4-(2,6-dimethoxyphenyl)-5-((S)-tetrahydrofuran-2-yl)-4H-1,2,4-triazol-3-yl)-1-methoxypropane-2-sulfonamide]	No effect	No effect	0.59
COc1cccc(OC)c1-n1c(NS(=O)(=O)[C@@H](C)[C@H](C)c2ncc(Cl)cn2)nnc1[C@H]1CCCO1 (single isomer, unassigned) [Example 53.0, (2S,3R)-3-(5-chloro-2-pyrimidinyl)-N-(4-(2,6-dimethoxyphenyl)-5-((2S)-tetrahydro-2-furanyl)-4H-1,2,4-triazol-3-yl)-2-butanesulfonamide or (2S,3R)-3-(5-chloro-2-pyrimidinyl)-N-(4-(2,6-dimethoxyphenyl)-5-((2R)-tetrahydro-2-furanyl)-4H-1,2,4-triazol-3-yl)-2-butanesulfonamide]	14.0%	12.4%	13
COc1cccc(OC)c1-n1c(NS(=O)(=O)[C@@H](C)[C@H](OC)c2ncc(Cl)cn2)nnc1[C@H]1CCOC1 (single isomer, unassigned) [Example 56.0, (1R,2S)-1-(5-chloropyrimidin-2-yl)-N-(4-(2,6-dimethoxyphenyl)-5-((R)-tetrahydrofuran-3-yl)-4H-1,2,4-triazol-3-yl)-1-methoxypropane-2-sulfonamide or (1R,2S)-1-(5-chloropyrimidin-2-yl)-N-(4-(2,6-dimethoxyphenyl)-5-((S)-tetrahydrofuran-3-yl)-4H-1,2,4-triazol-3-yl)-1-methoxypropane-2-sulfonamide]	6.8%	7.1%	19
COc1cccc(OC)c1-n1c(NS(=O)(=O)[C@@H](C)[C@H](OC)c2ncc(Cl)cn2)nnc1[C@H]1CCOC1 (single isomer, unassigned) [Example 57.0, (1R,2S)-1-(5-chloropyrimidin-2-yl)-N-(4-(2,6-dimethoxyphenyl)-5-((R)-tetrahydrofuran-3-yl)-4H-1,2,4-triazol-3-yl)-1-methoxypropane-2-sulfonamide or (1R,2S)-1-(5-chloropyrimidin-2-yl)-N-(4-(2,6-dimethoxyphenyl)-5-((S)-tetrahydrofuran-3-yl)-4H-1,2,4-triazol-3-yl)-1-methoxypropane-2-sulfonamide]	No effect	No effect	21
COc1cccc(OC)c1-n1c(NS(=O)(=O)[C@@H](C)[C@H](C)c2ncc(Cl)cn2)nnc1[C@H]1CCOC1 (single isomer, unassigned) [Example 61.0, (2S,3R)-3-(5-chloropyrimidin-2-yl)-N-(4-(2,6-dimethoxyphenyl)-5-((R)-tetrahydrofuran-3-yl)-4H-1,2,4-triazol-3-yl)butane-2-sulfonamide or (2S,3R)-3-(5-chloropyrimidin-2-yl)-N-(4-(2,6-dimethoxyphenyl)-5-((S)-tetrahydrofuran-3-yl)-4H-1,2,4-triazol-3-yl)butane-2-sulfonamide]	3.0%	No effect	29
COc1cccc(OC)c1-n1c(NS(=O)(=O)[C@@H](C)[C@H](C)c2ncc(Cl)cn2)nnc1[C@H]1CCCOC1 (single isomer, unassigned) [Example 63.0, (2S,3R)-3-(5-chloropyrimidin-2-yl)-N-(4-(2,6-dimethoxyphenyl)-5-((R)-tetrahydro-2H-pyran-3-yl)-4H-1,2,4-triazol-3-yl)butane-2-sulfonamide or (2S,3R)-3-(5-chloropyrimidin-2-yl)-N-(4-(2,6-dimethoxyphenyl)-5-((S)-tetrahydro-2H-pyran-3-yl)-4H-1,2,4-triazol-3-yl)butane-2-sulfonamide]	14.0%	11.0%	1.5
COc1cccc(OC)c1-n1c(NS(=O)(=O)[C@@H](C)[C@H](OC)c2ncc(Cl)cn2)nnc1[C@H]1CCCOC1 (single isomer, unassigned) [Example 65.0, (1R,2S)-1-(5-chloropyrimidin-2-yl)-N-(4-(2,6-dimethoxyphenyl)-5-((R)-tetrahydro-2H-pyran-3-yl)-4H-1,2,4-triazol-3-yl)-1-methoxypropane-2-sulfonamide or (1R,2S)-1-(5-chloropyrimidin-2-yl)-N-(4-(2,6-dimethoxyphenyl)-5-((S)-tetrahydro-2H-pyran-3-yl)-4H-1,2,4-triazol-3-yl)-1-methoxypropane-2-sulfonamide]	6.0%	No effect	2.9
COc1cccc(OC)c1-n1c(NS(=O)(=O)[C@@H](C)[C@H](C)c2ncc(C)cn2)nnc1[C@H]1OCC[C@H]1C (single isomer, unassigned) [Example 72.0, (2S,3R)-N-(4-(2,6-dimethoxyphenyl)-5-((2R,3S)-3-methyltetrahydrofuran-2-yl)-4H-1,2,4-triazol-3-yl)-3-(5-methylpyrimidin-2-yl)butane-2-sulfonamide or (2S,3R)-N-(4-(2,6-dimethoxyphenyl)-5-((2S,3R)-3-methyltetrahydrofuran-2-yl)-4H-1,2,4-triazol-3-yl)-3-(5-methylpyrimidin-2-yl)butane-2-sulfonamide]	5.9%	2.5%	6.8
COc1cccc(OC)c1-n1c(NS(=O)(=O)[C@@H](C)[C@H](OC)c2ncc(Cl)cn2)nnc1[C@H]1OCC[C@H]1C (single isomer, unassigned) [Example 73.0, (1R,2S)-1-(5-chloropyrimidin-2-yl)-N-(4-(2,6-dimethoxyphenyl)-5-((2R,3S)-3-methyltetrahydrofuran-2-yl)-4H-1,2,4-triazol-3-yl)-1-methoxypropane-2-sulfonamide or (1R,2S)-1-(5-chloropyrimidin-2-yl)-N-(4-(2,6-dimethoxyphenyl)-5-((2S,3R)-3-methyltetrahydrofuran-2-yl)-4H-1,2,4-triazol-3-yl)-1-methoxypropane-2-sulfonamide]	2.0%	No effect	1.4
